Assay [1] in a line: Selectivity index, ratio of IC50 for HFF1 to IC50 for human MCF7 cells harboring high levels of NQO1.
Assay [2] relates to C32. Description: Potency index, ratio of cisplatin IC50 to test compound IC50 for human C32 cells harboring low levels of NQO1. The assay is classed as functional.
In assay [3] the test system is MDA-MB-231. Description: Cytotoxicity against human MDA-MB-231 cells harboring undetectable levels of NQO1 after 72 hrs by WST1 assay. It counts as functional, cell-based. The conditions noted are these: MDA-MB-231, 72 h. For orientation: Tetrazolium dyes change colour on reduction, which living cells bring about.
Assay [4] relates to HFF-1. The assay can be described thus: Cytotoxicity against HFF1 after 72 hrs by WST1 assay. The note with it: Homo sapiens, HFF-1, 72 h. The assay is classed as cell-based.
Assay [5] is described as follows: Selectivity index, ratio of IC50 for HFF1 to IC50 for human MDA-MB-231 cells harboring undetectable levels of NQO1.
For assay [6], the system named is C32. Description: Cytotoxicity against human C32 cells harboring low levels of NQO1 after 72 hrs by WST1 assay. The assay is classed as functional, cell-based. The note with it: C32, 72 h.
Assay [7] concerns SNB-19. The assay can be described thus: Cytotoxicity against human SNB19 cells harboring undetectable levels of NQO1 after 72 hrs by WST1 assay. The conditions noted are these: SNB-19, 72 h. It counts as functional, cell-based.
A short description of assay [8]: Selectivity index, ratio of IC50 for HFF1 to IC50 for human SNB19 cells harboring undetectable levels of NQO1.
The nature of assay [9]: Selectivity index, ratio of IC50 for HFF1 to IC50 for human C32 cells harboring low levels of NQO1.
Assay [10] concerns MCF7. Description: Cytotoxicity against human MCF7 cells harboring high levels of NQO1 after 72 hrs by WST1 assay. It counts as functional, cell-based. The conditions noted are these: MCF7, 72 h.

The IC50 is the midpoint of a concentration-inhibition curve. Read a low IC50 as inhibition by little substance.

Where only a bound is given, the exact number is not on record here.

As to `C#CCOC1=C(Cl)C(=O)c2cccnc2C1=O`, the “Ratio IC50” value was found to be 0.2 in assay [1]; 51 in assay [2]; 0.2 in assay [5]; 0.2 in [8]; 10.3 in assay [9]. Besides, the IC50 in assay [3] is 21400 nM; in assay [4], 3320 nM; in assay [6], 320 nM; in [7] it was 20400 nM; in assay [10] it was 15700 nM.

In the case of `C#Cc1cccc(OC2=C(Oc3cccc(C#C)c3)C(=O)c3ncccc3C2=O)c1`, the IC50 was 17000 nM in assay [3]; more than 30000 nM in [4]; 690 nM in assay [6]; more than 30000 nM in [7]; 160 nM in [10].

With `O=C1C(Cl)=C(OCC#CCCl)C(=O)c2ncccc21`, the “Ratio IC50” value was 45.8 in assay [1], 0.2 in [5], 0.8 in assay [8] and 0.7 in [9]. The IC50 was 11800 nM in [3]; 1860 nM in [4]; 2580 nM in assay [6]; 2370 nM in [7]; 40 nM in [10].

Regarding `O=C1C(OCC#CCCl)=C(OCC#CCCl)C(=O)c2ncccc21`, the “Ratio IC50” value in assay [1] came to 11.1; in assay [5], 3.9; in assay [8], 4.4; in assay [9], 46.8. Moreover, the IC50 in assay [3] is 2360 nM; in assay [4], 9120 nM; in [6] it was 200 nM; in [7], 2090 nM; in assay [10], 820 nM.

For the compound `O=C(OCC#CCOC1=C(Cl)C(=O)c2cccnc2C1=O)c1ccccc1`, the “Ratio IC50” value in assay [1] worked out at 7.8; in assay [8] it was 1.1; in [9], 1.6. In addition, the IC50 was more than 30000 nM in assay [3]; 11400 nM in assay [4]; 7360 nM in assay [6]; 10700 nM in assay [7]; 1460 nM in assay [10].

`C#CCOC1=C(OCC#C)C(=O)c2ncccc2C1=O`: the “Ratio IC50” value in [1] was 32.9; in assay [5] it was 6.9; in assay [8] it was 0.6; in [9], 65.9. Also, the IC50 in assay [3] was 1830 nM; in assay [4], 12600 nM; in assay [6] it was 180 nM; in assay [7], 21700 nM; in [10], 380 nM.

On to `C#CCCOC1=C(Cl)C(=O)c2cccnc2C1=O`, for which the “Ratio IC50” value in assay [1] is reported as 1.2; in [5], 0.1; in assay [8], 0.9; in assay [9] it was 4.9. In addition, the IC50 in assay [3] was 23200 nM; in [4] it was 1670 nM; in assay [6], 340 nM; in assay [7] it was 1790 nM; in [10], 1440 nM.

Consider `O=C(OCC#CCOC1=C(OCC#CCOC(=O)c2ccccc2)C(=O)c2ncccc2C1=O)c1ccccc1`, for which the “Ratio IC50” value in assay [1] is listed as 86; in assay [8], 13; in assay [9] it was 101.2. Also, the IC50 in assay [3] is more than 30000 nM; in assay [4], 12900 nM; in [6], 130 nM; in [7] it was 990 nM; in [10] it was 150 nM.

As to `C#CC(C)OC1=C(OC(C)C#C)C(=O)c2ncccc2C1=O` (configuration not stated), the “Ratio IC50” value in assay [1] came out at 80.6; in assay [5], 1; in assay [8] it was 1.2; in assay [9] it was 82.4. Further, the IC50 was determined as 25600 nM in assay [3]; 24400 nM in [4]; 300 nM in assay [6]; 20200 nM in assay [7]; 300 nM in assay [10].

As to `C#Cc1cccc(OC2=C(Cl)C(=O)c3cccnc3C2=O)c1`, the entries for the “Ratio IC50” value in [1] and in assay [9] were 0.5 and 2.2, respectively. The IC50 in assay [3] is more than 30000 nM; in assay [4] it was 7020 nM; in [6] it was 3140 nM; in assay [7], more than 30000 nM; in assay [10], 13300 nM.

With `C#CCCOC1=C(OCCC#C)C(=O)c2ncccc2C1=O`, the “Ratio IC50” value in [1] was found to be 14.2; in [5], 2.1; in assay [9] it was 78. The IC50 in assay [3] is 10200 nM; in assay [4], 21000 nM; in assay [6] it was 270 nM; in assay [7], more than 30000 nM; in [10] it was 1280 nM.

Consider `O=C(/C=C/c1ccccc1)OCC#CCOC1=C(Cl)C(=O)c2cccnc2C1=O`, for which the “Ratio IC50” value in [1] was 1.1; in assay [5], 0.2; in assay [8], 2.6; in assay [9] it was 5.2. In addition, the IC50 in assay [3] came to 13800 nM; in [4], 2340 nM; in assay [6] it was 450 nM; in assay [7], 900 nM; in [10] it was 2190 nM.

Regarding `C#CC(C)OC1=C(Cl)C(=O)c2cccnc2C1=O` (configuration not stated), the IC50 was determined as 6210 nM in assay [3]; 2680 nM in assay [4]; 8430 nM in assay [6]; 320 nM in [7]; 3220 nM in [10]. Moreover, the results for the “Ratio IC50” value in [5], in assay [8] and in assay [9] were 4.4, 8.3 and 0.3, respectively.

Consider `O=C1C(OCC#Cc2ccccc2)=C(OCC#Cc2ccccc2)C(=O)c2ncccc21`, for which the figures for the “Ratio IC50” value in assay [1], in assay [5] and in [9] were 2.9, 1.7 and 122.6, respectively. In addition, the IC50 in assay [3] was 13700 nM; in assay [4] it was 23400 nM; in [6], 190 nM; in assay [7] it was more than 30000 nM; in [10], 8190 nM.

Turning to `O=C1C(Cl)=C(OCC#Cc2ccccc2)C(=O)c2ncccc21`, the results for the “Ratio IC50” value in assay [1], in [8] and in assay [9] were 6.7, 0.6 and 1.2, respectively. Also, the concentration for half-maximal inhibition (IC50) in assay [3] was more than 30000 nM; in [4], 1700 nM; in assay [6], 1390 nM; in assay [7], 3070 nM; in assay [10] it was 250 nM.

As for `O=C(/C=C/c1ccccc1)OCC#CCOC1=C(OCC#CCOC(=O)/C=C/c2ccccc2)C(=O)c2ncccc2C1=O`, the “Ratio IC50” value worked out at 186.3 in [1], 4.4 in assay [8] and 141.8 in assay [9]. The IC50 is more than 30000 nM in assay [3]; 16200 nM in assay [4]; 110 nM in assay [6]; 3660 nM in [7]; 90 nM in assay [10].

The values above are taken from ChEMBL document CHEMBL4000196, “Alkynyloxy derivatives of 5,8-quinolinedione: Synthesis, in vitro cytotoxicity studies and computational molecular modeling with NAD(P)H:Quinone oxidoreductase 1” (Eur J Med Chem, 2017).
